Results published in patent US7772245B2, “Inhibitors of histone deacetylase” (Miikana Therapeutics, Inc., priority 2005, dated 2010).

Assays:
HDAC = experiment: In vitro fluorescent histone deacetylase assay (Biomol HDAC fluorescent activity kit, HeLa cell nuclear extract); format: biochemical; settings: 100 μM compound; HeLa cell nuclear extract as source of HDAC activity; 50 μM substrate, 10 min at room temperature
In short: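 HeLa nuclear extract as HDAC source with fluorogenic substrate at 50 μM final, reacting 10 min at room temperature before stop. Compounds serially diluted in assay buffer, final DMSO ≤2%; fluorescence read at ex 355 nm / em 460 nm.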

HCT116 cells = experiment: Whole cell cytotoxicity assay: Sulforhodamine B; format: cell-based; settings: Homo sapiens, HCT-116; 100 μM compound; 48 hours incubation with drug; Sulforhodamine B staining; read-out: % Inhibition of HCT116 cell growth @ 100 μM

Structure (SMILES) | % Inhibition of HDAC @ 100 μM (HDAC) [%] | inhibition at 100 µM (HCT116 cells) [%]
C[S+]([O-])c1cccc(-c2ccc3[nH]c4c(c3c2)CN(c2ncc(C(=O)NO)cn2)CC4)c1 (stereo not drawn) [Example 79, N-hydroxy-2-{8-[3-(methylsulfinyl)phenyl]-1,3,4,5-tetrahydro-2H-pyrido[4,3-b]indol-2-yl}pyrimidine-5-carboxamide] | 100 | 95.7
CC(=O)NCc1cccc(-c2ccc3[nH]c4c(c3c2)CN(c2ncc(C(=O)NO)cn2)CC4)c1 [Example 82, N-hydroxy-2-{8-[3-(N-acetamidomethyl)phenyl]-1,3,4,5-tetrahydro-2H-pyrido[4,3-b]indol-2-yl}pyrimidine-5-carboxamide] | 99.9 | 97
CS(=O)(=O)NCc1cccc(-c2ccc3[nH]c4c(c3c2)CN(c2ncc(C(=O)NO)cn2)CC4)c1 [Example 83, N-hydroxy-2-{8-[3-(N-methylsulfonamidomethyl)phenyl]-1,3,4,5-tetrahydro-2H-pyrido[4,3-b]indol-2-yl}pyrimidine-5-carboxamide] | 99.9 | 94.7
O=C(NO)c1cnc(N2CCc3[nH]c4ccc(-c5cccc(-c6nnn[nH]6)c5)cc4c3C2)nc1 [Example 84, N-hydroxy-2-{8-[3-(1H-tetrazol-5-yl)phenyl]-1,3,4,5-tetrahydro-2H-pyrido[4,3-b]indol-2-yl}pyrimidine-5-carboxamide] | 99.9 | 93.2
Nc1cccc(-c2ccc3[nH]c4c(c3c2)CN(c2ncc(C(=O)NO)cn2)CC4)c1 [Example 86, N-hydroxy-2-{8-[3-aminophenyl]-1,3,4,5-tetrahydro-2H-pyrido[4,3-b]indol-2-yl}pyrimidine-5-carboxamide] | 100 | 99.1
CC(=O)Nc1cccc(-c2ccc3[nH]c4c(c3c2)CN(c2ncc(C(=O)NO)cn2)CC4)c1 [Example 87, N-hydroxy-2-{8-[3-(N-acetamido)phenyl]-1,3,4,5-tetrahydro-2H-pyrido[4,3-b]indol-2-yl}pyrimidine-5-carboxamide] | 100 | 83.1
O=C(NO)c1cnc(N2CCc3[nH]c4ccc(-c5cccc(CN6CCOCC6)c5)cc4c3C2)nc1 [Example 90, N-hydroxy-2-{8-[3-(morpholin-4-ylmethyl)phenyl]-1,3,4,5-tetrahydro-2H-pyrido[4,3-b]indol-2-yl}pyrimidine-5-carboxamide] | 99.8 | 93.1
O=C(NO)c1cnc(N2CCc3[nH]c4ccc(-c5cccc(CN6CCCCC6)c5)cc4c3C2)nc1 [Example 91, N-hydroxy-2-{8-[3-(piperidin-1-ylmethyl)phenyl]-1,3,4,5-tetrahydro-2H-pyrido[4,3-b]indol-2-yl}pyrimidine-5-carboxamide] | 100 | 98.6
O=C(NO)c1cnc(N2CCc3[nH]c4ccc(-c5cccc(CN6CCC(CO)CC6)c5)cc4c3C2)nc1 [Example 93, N-hydroxy-2-{8-[3-((4-hydroxymethylpiperidin-1-yl)methyl)phenyl]-1,3,4,5-tetrahydro-2H-pyrido[4,3-b]indol-2-yl}pyrimidine-5-carboxamide] | 100 | 98
O=C(NO)c1cnc(N2CCc3[nH]c4ccc(-c5cccc(CN6CCSCC6)c5)cc4c3C2)nc1 [Example 94, N-hydroxy-2-{8-[3-(thiomorpholin-4-ylmethyl)phenyl]-1,3,4,5-tetrahydro-2H-pyrido[4,3-b]indol-2-yl}pyrimidine-5-carboxamide] | 99.7 | 98.5
O=C(NO)c1cnc(N2CCc3[nH]c4ccc(-c5cccc(CN(CCO)CCO)c5)cc4c3C2)nc1 [Example 95, N-hydroxy-2-{8-[3-(N,N-di(2-hydroxyethyl)aminomethyl)phenyl]-1,3,4,5-tetrahydro-2H-pyrido[4,3-b]indol-2-yl}pyrimidine-5-carboxamide] | 100 | 98.2
CN1CCN(Cc2cccc(-c3ccc4[nH]c5c(c4c3)CN(c3ncc(C(=O)NO)cn3)CC5)c2)CC1 [Example 96, N-hydroxy-2-{8-[3-((4-methylpiperazin-1-yl)methyl)phenyl]-1,3,4,5-tetrahydro-2H-pyrido[4,3-b]indol-2-yl}pyrimidine-5-carboxamide] | 100 | 98.7
O=C(NO)c1cnc(N2CCc3[nH]c4ccc(-c5cccc(CN6CCCC6)c5)cc4c3C2)nc1 [Example 97, N-hydroxy-2-{8-[3-(pyrrolidin-1-ylmethyl)phenyl]-1,3,4,5-tetrahydro-2H-pyrido[4,3-b]indol-2-yl}pyrimidine-5-carboxamide] | 100 | 98.1
O=C(NO)c1cnc(N2CCc3[nH]c4ccc(-c5cccc(CN6CCNCC6)c5)cc4c3C2)nc1 [Example 99, N-hydroxy-2-{8-[3-(piperazin-1-ylmethyl)phenyl]-1,3,4,5-tetrahydro-2H-pyrido[4,3-b]indol-2-yl}pyrimidine-5-carboxamide] | 99.9 | 93.8
CS(=O)(=O)N1CCN(Cc2cccc(-c3ccc4[nH]c5c(c4c3)CN(c3ncc(C(=O)NO)cn3)CC5)c2)CC1 [Example 100, N-hydroxy-2-{8-[3-((4-(methylsulfonyl)piperazin-1-yl)methyl)phenyl]-1,3,4,5-tetrahydro-2H-pyrido[4,3-b]indol-2-yl}pyrimidine-5-carboxamide] | 100 | 96.6
CC(=O)N1CCN(Cc2cccc(-c3ccc4[nH]c5c(c4c3)CN(c3ncc(C(=O)NO)cn3)CC5)c2)CC1 [Example 101, N-hydroxy-2-{8-[3-((4-acetylpiperazin-1-yl)methyl)phenyl]-1,3,4,5-tetrahydro-2H-pyrido[4,3-b]indol-2-yl}pyrimidine-5-carboxamide] | 100 | 97.9
O=C(NO)c1cnc(N2CCc3[nH]c4ccc(-c5ccc(CN6CCOCC6)cc5)cc4c3C2)nc1 [Example 104, N-hydroxy-2-{8-[4-(morpholin-4-ylmethyl)phenyl]-1,3,4,5-tetrahydro-2H-pyrido[4,3-b]indol-2-yl}pyrimidine-5-carboxamide] | 100 | 92
CN1CCN(Cc2ccc(-c3ccc4[nH]c5c(c4c3)CN(c3ncc(C(=O)NO)cn3)CC5)cc2)CC1 [Example 106, N-hydroxy-2-{8-[4-((4-methylpiperazin-1-yl)methyl)phenyl]-1,3,4,5-tetrahydro-2H-pyrido[4,3-b]indol-2-yl}pyrimidine-5-carboxamide] | 99.9 | 98.3
O=C(NO)c1cnc(N2CCc3[nH]c4ccc(-c5ccc(CO)cc5)cc4c3C2)nc1 [Example 107, N-hydroxy-2-{8-[4-(hydroxymethyl)phenyl]-1,3,4,5-tetrahydro-2H-pyrido[4,3-b]indol-2-yl}pyrimidine-5-carboxamide] | 99.9 | 92.7
CN1CCN(Cc2ccc(-c3ccc4[nH]c5c(c4c3)CN(c3ncc(C(=O)NO)cn3)CC5)o2)CC1 [Example 108, N-hydroxy-2-{8-[5-((4-methylpiperazin-1-yl)methyl)-2-furyl]-1,3,4,5-tetrahydro-2H-pyrido[4,3-b]indol-2-yl}pyrimidine-5-carboxamide] | 100 | 99.1
O=C(NO)c1cnc(N2CCc3[nH]c4ccc(-c5ccc(CN6CCOCC6)o5)cc4c3C2)nc1 [Example 109, N-hydroxy-2-{8-[5-(morpholin-4-yl)methyl-2-furyl]-1,3,4,5-tetrahydro-2H-pyrido[4,3-b]indol-2-yl}pyrimidine-5-carboxamide] | 100 | 91.7
CN1CCN(Cc2ccc(-c3ccc4[nH]c5c(c4c3)CN(c3ncc(C(=O)NO)cn3)CC5)s2)CC1 [Example 110, N-hydroxy-2-{8-[5-((4-methylpiperazin-1-yl)methyl)-thien-2-yl]-1,3,4,5-tetrahydro-2H-pyrido[4,3-b]indol-2-yl}pyrimidine-5-carboxamide] | 100 | 98.7
O=C(NO)c1cnc(N2CCc3[nH]c4cc(Br)ccc4c3C2)nc1 [Example 112, N-hydroxy-2-(7-bromo-1,3,4,5-tetrahydro-2H-pyrido[4,3-b]indol-2-yl)pyrimidine-5-carboxamide] | 99.9 | 98.7
COc1ccc2[nH]c3c(c2c1)CCN(c1ncc(C(=O)NO)cn1)CC3 [Example 113, N-hydroxy-2-(9-methoxy-1,4,5,6-tetrahydroazepino[4,5-b]indol-3(2H)-1-yl)pyrimidine-5-carboxamide] | 100 | 98.7
O=C(NO)c1cnc(N2CCc3[nH]c4ccc(-c5cccc(CN6CCOCC6)c5)cc4c3CC2)nc1 [Example 116, N-hydroxy-2-(9-[3-(morpholin-4-ylmethy)phenyl]-1,4,5,6-tetrahydroazepino[4,5-b]indol-3(2H)-1-yl)pyrimidine-5-carboxamide] | 100 | 98.6
CN1CCN(Cc2cccc(-c3ccc4[nH]c5c(c4c3)CCN(c3ncc(C(=O)NO)cn3)CC5)c2)CC1 [Example 117, N-hydroxy-2-(9-[3-((4-methylpiperazin-1-yl)methy)phenyl]-1,4,5,6-tetrahydroazepino[4,5-b]indol-3(2H)-1-yl)pyrimidine-5-carboxamide] | 99.8 | 98.6
O=C(NO)c1cnc(N2CCc3c(sc4ccccc34)C2)nc1 [Example 118, 2-(3,4-dihydro[1]benzothieno[2,3-c]pyridin-2(1H)-yl)-N-hydroxypyrimidine-5-carboxamide] | 99.7 | 98.9
